Laboratory results published in PMC8587515, “Cytotoxic and Anti-Inflammatory Activities of Dihydroisocoumarin and Xanthone Derivatives from Garcinia picrorhiza” (Molecules, 2021).
Like-named read-outs stand apart in the source and are kept apart here. Values belong to the compound of their own block, whether it stands above or below them.

What was measured:
[1] = target: T1, COX-1 (purified PGHS-1 from ram seminal vesicles) (Ovis aries, UniProt P05979); assay: COX-1 enzyme inhibition assay (PGE2 ELISA); format: biochemical; settings: mean ± SD (n = 4)
T1 construct: Purified PGHS-1 from ram seminal vesicles for COX-1; purchased Cayman Chemical Co., Ann Arbor, MI, USA; host or cells: ram seminal vesicles (tissue-purified)
T1 sequence (P05979 25-600): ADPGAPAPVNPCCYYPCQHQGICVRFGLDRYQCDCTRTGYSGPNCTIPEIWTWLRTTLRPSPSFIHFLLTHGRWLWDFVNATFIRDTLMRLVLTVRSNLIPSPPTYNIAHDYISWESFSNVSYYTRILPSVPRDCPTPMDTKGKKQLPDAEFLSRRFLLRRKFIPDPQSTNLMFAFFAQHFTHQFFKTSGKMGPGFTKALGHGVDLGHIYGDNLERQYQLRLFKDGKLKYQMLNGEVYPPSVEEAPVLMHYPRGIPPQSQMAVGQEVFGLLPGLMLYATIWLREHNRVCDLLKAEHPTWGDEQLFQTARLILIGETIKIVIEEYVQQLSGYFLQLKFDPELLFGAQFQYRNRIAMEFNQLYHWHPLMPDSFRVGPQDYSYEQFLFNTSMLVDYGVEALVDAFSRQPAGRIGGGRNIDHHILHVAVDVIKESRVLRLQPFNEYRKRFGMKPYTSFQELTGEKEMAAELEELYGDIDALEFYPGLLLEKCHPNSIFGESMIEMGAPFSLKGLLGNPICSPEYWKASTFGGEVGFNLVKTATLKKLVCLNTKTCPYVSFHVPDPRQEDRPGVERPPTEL
Method: (§1) The anti-inflammatory effects of the isolated compounds were also screened on COX-1 and COX-2 enzymes inhibition at a final concentration of 20 µM.
(§2) Purified PGHS-1 from ram seminal vesicles for COX-1 and human recombinant PGHS-2 for COX-2 (Cayman Chemical Co., Ann Arbor, MI, USA) were used for the COX inhibition assays. Experiments were performed in a 96-well plate format, as previously described. Briefly, the incubation mixture contained 180 µL of 0.1 M TRIS/HCl-buffer pH 8.0 (Roth, Karlsruhe, Germany), 50 µM Na2EDTA (only for COX-2, Titriplex III, Merck, Darmstadt, Germany), 18 mM L-epinepherine bitartrate (Fluka, Buchs, Switzerland), 5 µM porcine hematin (MP Biomedicals LLC, Solon, OH, USA), and COX-1 or COX-2 enzymes (0.2 U/well). Ten microliters of tested compounds (dissolved in DMSO with a final concentration of 20 µM) was added and the mixture was pre-incubated for 5 min at room temperature. Thereafter, 10 µL of 5 µM arachidonic acid (Ann Arbor, Michigan USA) was added to the mixture and incubated for 20 min at 37 °C. The reaction was subsequently stopped by adding 10 µL of 10% (v/v) formic acid. The concentration of PGE2 generated in the reaction was quantitatively measured by a competitive PGE2 ELISA kit (Enzo Life Sciences Inc., Farmingdale, NY, USA) according to the manufacturer’s protocol and previous procedure. The absorbance at 405 nm was measured using a Hidex Sense Microplate Reader (Hidex, Turku, Finland). […] The assays were performed in duplicates and repeated in two independent experiments.

[2] = target: T2, COX-2 (human recombinant PGHS-2) (Homo sapiens, UniProt P35354); assay: COX-2 enzyme inhibition assay (PGE2 ELISA); format: biochemical; settings: mean ± SD (n = 4)
T2 construct: purchased Cayman Chemical Co., Ann Arbor, MI, USA
T2 sequence (P35354 18-604): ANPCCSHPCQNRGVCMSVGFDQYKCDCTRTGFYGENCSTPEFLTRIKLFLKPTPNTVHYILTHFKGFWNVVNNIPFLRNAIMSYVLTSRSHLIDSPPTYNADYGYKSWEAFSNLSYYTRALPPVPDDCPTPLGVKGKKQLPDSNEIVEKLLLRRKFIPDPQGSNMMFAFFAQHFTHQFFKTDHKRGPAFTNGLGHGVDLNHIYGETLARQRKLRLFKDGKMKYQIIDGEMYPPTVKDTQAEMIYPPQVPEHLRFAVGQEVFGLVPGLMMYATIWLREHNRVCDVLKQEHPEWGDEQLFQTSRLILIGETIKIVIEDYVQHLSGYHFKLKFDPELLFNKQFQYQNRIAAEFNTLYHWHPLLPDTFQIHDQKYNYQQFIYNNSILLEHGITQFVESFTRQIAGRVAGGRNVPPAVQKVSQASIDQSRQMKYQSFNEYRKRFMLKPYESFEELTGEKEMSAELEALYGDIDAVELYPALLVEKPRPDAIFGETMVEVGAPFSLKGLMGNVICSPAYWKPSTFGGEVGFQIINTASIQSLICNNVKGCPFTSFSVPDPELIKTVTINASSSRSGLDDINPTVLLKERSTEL
Method: as §1, §2

[3] = tested on: HeLa S3 (human cervical carcinoma); parameters: method as in PMID 30153471, PMID 33999337; settings: MTT; results based on previous work; read-out: IC50 ± SEM, HeLa S3; cited from earlier work
[4] = tested on: KB (human epidermoid carcinoma); parameters: method as in PMID 30153471, PMID 33999337; settings: MTT; results based on previous work; read-out: IC50 ± SEM, KB; cited from earlier work
[5] = tested on: Hep G2 (human hepatocellular carcinoma); parameters: method as in PMID 30153471, PMID 33999337; settings: MTT; results based on previous work; read-out: IC50 ± SEM, Hep G2; cited from earlier work
[6] = tested on: HT-29 (human colon adenocarcinoma); parameters: method as in PMID 30153471, PMID 33999337; key to IC50 ± SEM, HT-29: IC50 ≤ 10 µM = good cytotoxicity; 10 µM < IC50 ≤ 30 µM = weak cytotoxicity; inactive (IC50 > 30 µM); settings: MTT, results based on previous work, cited from earlier work
[7] = tested on: MCF-7 (human breast adenocarcinoma); parameters: method as in PMID 30153471, PMID 33999337; settings: MTT; results based on previous work; read-out: IC50 ± SEM, MCF-7; cited from earlier work
[8] = Cytotoxicity (XTT cell viability), BV-2; format: cell-based; settings: mouse, BV-2 microglial cells, LPS/IFN-γ-stimulated, LPS-IFN-γ-induced cells, mean ± SEM (n = 6)
Method: (§3) Compounds 1–8 were screened for their inhibitory effects on nitric oxide production in LPS-IFN-γ activated RAW 264.7 macrophages and BV-2 microglial cells at a final concentration of 50 µM. […] A deprenylated furanoxanthone structure with ortho hydroxy group in ring B as in 7 might be important to enhance the inhibitory effect when compared to 6 and 8.
(§4) The iNOS inhibitory activity of the isolated compounds and respective cytotoxicity was determined using a previously described protocol. Briefly, BV-2 mouse microglial (25,000 cells/well) and RAW 264.7 mouse macrophage (100,000 cells/well) cell lines were seeded into 96-well plates in high glucose Dulbecco’s Modified Eagle’s Medium (DMEM, Gibco) containing 4 mM L-glutamine, 10% FBS, 2% HEPES, 1% penicillin/streptomycin, and 0.5% amphotericin B. After incubation for 24 h at 37 °C in a 5% CO2 humidified atmosphere, the cells were stimulated with 0.05% LPS (Sigma) and 0.025% interferon-γ (Roche Diagnostics, Mannheim, Germany) and treated with different concentrations (5–100 μM) of the tested compounds. The level of NO production in cell culture supernatants was determined using Griess reagent (Sigma) by photocolorimetric analysis after 16 h of incubation, using a Hidex Sense Microplate Reader (Hidex, Turku, Finland). Fifty microliters of XTT reagent (Sigma, Kit II) was then added into the same plates for cell viability measurement after 60 min incubation. L-NMMA (Alexis, Grünberg, Germany) 100 µM was used as the positive control, while 1% DMSO and digitonin (Roth, Karlsruhe, Germany) 400 µM were used as the vehicle and negative control, respectively. The assays were conducted in triplicates and repeated in two independent experiments. IC50 values were determined by graphical analysis using GraphPad Prism 7 (GraphPad Software, La Jolla, CA, USA).

[9] = Cytotoxicity (XTT cell viability), RAW 264.7; format: cell-based; settings: mouse, RAW 264.7 macrophage cells, LPS/IFN-γ-stimulated, LPS-IFN-γ-induced cells, mean ± SEM (n = 6)
Method: as §3, §4

[10] = tested on: NO production in LPS-IFN-γ-induced RAW 264.7 macrophages; assay: NO production inhibition assay (Griess), RAW 264.7; format: cell-based, mouse
Method: as §3, §4

[11] = tested on: NO production in LPS-IFN-γ-induced BV-2 microglial cells; assay: NO production inhibition assay (Griess), BV-2; format: cell-based, mouse
Method: as §3, §4

[12] = tested on: HeLa S3 (human cervical carcinoma); assay: MTT cytotoxic activity assay, HeLa S3; format: cell-based; settings: 72 h, mean ± SEM of three replicates
Method: (§5) The cytotoxic activity of the isolated compounds was evaluated using the MTT viability assay with doxorubicin as the positive control and the results are presented in Table 2.
(§6) The MTT colorimetric method was performed to evaluate cytotoxic activity of the isolated compounds against human epidermoid carcinoma (KB; ATCC CCL17), human cervical carcinoma (HeLa S3; ATCC CCL2-2), human colon adenocarcinoma (HT-29; ATCC HTB-38), human breast adenocarcinoma (MCF-7; ATCC HTB-22), and human hepatocellular carcinoma (Hep G2; ATCC HB-8065) cell lines according to the previous method. The cancer cells were cultured in MEM containing 10% fetal bovine serum in the presence of 100 U/mL penicillin and 100 μg/mL streptomycin sulphate (Gibco, Rockville, MD, USA), seeded in a 96-well plate (3000 cells/well), and pre-incubated at 37 °C for 24 h in a 5% CO2 humidified atmosphere. The tested compounds with serial concentrations (0.3–100 μM) were added and incubated for a further 72 h in the same condition. At the end of treatment, 20 µL of MTT solution (5 mg/mL in PBS, Sigma, St. Louis, MI, USA) was added to each well and further incubated for 3 h. After centrifugation at 1400 rpm for 5 min at 4 °C, the supernatant was decanted and DMSO (100 µL/well) was added to allow formazan product solubilization, which was subsequently measured by a microplate reader (Tecan Trading AG, Switzerland) at wavelength 550 nm. Control cells were treated with 0.1% DMSO. Doxorubicin (tested concentrations: 0.01–3.0 μM, Sigma) was used as the positive control. The results are expressed as the mean values of three replicates for three independent experiments. IC50 values were determined by graphical analysis using SigmaPlot 10 (Systat Software Inc., San Jose, CA, USA), obtained by plotting the cell viability percentage versus sample concentration.

[13] = tested on: KB (human epidermoid carcinoma); assay: MTT cytotoxic activity assay, KB; format: cell-based; settings: 72 h, mean ± SEM of three replicates
Method: as §5, §6

[14] = tested on: four cancer cells (KB, HeLa S3, MCF-7, and Hep G2); settings: HeLa S3, MCF-7, Hep G2, earlier studies, read-out: IC50 values against four cancer cells; cited from earlier work
[15] = final concentration of 50 µM, preliminary screen

Structure (SMILES): O=c1c2cccc(O)c2oc2ccc(O)c(O)c12 [Compound 9, 1,2,5-trihydroxyxanthone]
- inhibition at 20 µM [1]: 22.6 ± 2.2%
- inhibition at 20 µM [2]: < 10%

Structure (SMILES): C[C@@H]1Oc2cc(O)c3c(=O)c4cccc(O)c4oc3c2C1(C)C [Compound 6, pancixanthone B]
- inhibition at 20 µM [1]: 31.2 ± 21.7%
- inhibition at 20 µM [2]: < 10%
- IC50 [3]: 20.7 ± 0.6 µM
- IC50 [4]: 12.1 ± 0.1 µM
- IC50 [5]: 22.8 ± 0.4 µM
- IC50 ± SEM, HT-29 [6]: inactive
- IC50 [7]: 15.6 ± 0.3 µM

Structure (SMILES): CC1(C)c2c(cc3oc4ccc(O)c(O)c4c(=O)c3c2O)O[C@@H]1CO [Compound 5, 3′-hydroxycalothorexanthone]
- IC50 at 16 h [8]: 74.7 ± 2.1 µM
- IC50 at 16 h [9]: > 200 µM
- IC50 ([10]; Mus musculus, RAW264.7, LPS-IFN-γ-induced, 16 h, mean ± SEM (n = 6), read-out: IC50, iNOS (inhibition of NO production), RAW 264.7): 16.4 ± 4.5 µM
- suppression of NO production, RAW 264.7 [10, 15]: over 70%
- IC50 ([11]; Mus musculus, BV-2, LPS-IFN-γ-induced, 16 h, mean ± SEM (n = 6), read-out: IC50, iNOS (inhibition of NO production), BV-2): 13.8 ± 1.6 µM
- suppression of NO production, BV-2 [11, 15]: over 70%

Structure (SMILES): COc1c(O)ccc2c(=O)c3c(O)cc(O)cc3oc12 [Compound 13, 1,3,6-trihydroxy-5-methoxyxanthone]
- IC50 [12]: 15.2 ± 1.3 µM
- IC50 [13]: 11.4 ± 1.7 µM

Structure (SMILES): [H]/N=C(/NC)NCCC[C@H](N)C(=O)O [L-NMMA, reference compound]
- inhibition at 100 µM ([10]; Mus musculus, RAW264.7, at 100 µM, read-out: inhibition of NO production, RAW 264.7 (positive control)): 64.1%
- inhibition at 100 µM ([11]; Mus musculus, BV-2, at 100 µM, read-out: inhibition of NO production, BV-2 (positive control)): 44.1%

Structure (SMILES): CC(C)=CCc1c2c(c3oc4c(O)c(O)ccc4c(=O)c3c1O)C(C)(C)[C@H](C)O2 [Compound 8, formoxanthone C]
- inhibition at 20 µM [1]: 24 ± 15%
- inhibition at 20 µM [2]: < 10%
- IC50 [14]: < 10 µM
- IC50 [3]: 0.3 ± 0.1 µM
- IC50 [4]: 0.2 ± 0.1 µM
- IC50 [5]: 3.8 ± 0.5 µM
- IC50 ([6]; read-out: IC50 ± SEM, HT-29): 21.9 ± 1.2 µM
- IC50 [7]: 4.9 ± 0.4 µM

Second part, the compound after the results:

- inhibition at 20 µM [1]: < 10%
- % Inhibition at 20 µM, COX-2 [2]: 10.4 ± 5.0%
- inhibition at 20 µM [2]: > 10%
Structure (SMILES): COc1c(O)cc2c(c1O)C(=O)O[C@@H](c1ccccc1)C2 [Compound 2, (−)-annulatomarin]

- inhibition at 20 µM [1]: 24.2 ± 12.3%
- inhibition at 20 µM [2]: < 10%
Structure (SMILES): COc1c(O)cc2c(c1O)C(=O)O[C@@H](c1ccccc1O)C2 [Compound 3, 2′-hydroxyannulatomarin]

- inhibition at 20 µM [1]: 18.3 ± 12.1%
- inhibition at 20 µM [2]: < 10%
Structure (SMILES): COc1cc(O)c2c(=O)c3ccc(O)c(OC)c3oc2c1 [Compound 14, 1,6-dihydroxy-3,5-dimethoxyxanthone]
